{
  "source": "patent US20130326734A1",
  "about": "“COMPOSITIONS AND METHODS FOR CONTROLLING CARBON DIOXIDE- (CO2-) REGULATED STOMATAL APERTURES, WATER TRANSPIRATION AND WATER USE EFFICIENCY IN PLANTS” (THE REGENTS OF THE UNIVERSITY OF CALIFORNIA, priority 2011, published 2013)",
  "key": {"[1]": {"system": "S-type anion channel currents in Arabidopsis guard cell protoplasts", "assay": "Whole-cell patch-clamp recording of S-type anion currents in guard cell protoplasts", "type": "cell-based", "details": "for current amplitude activated by bicarbonate at a voltage of −146 mV: 13.5 mM total bicarbonate; for HCO3− activated S-type anion current at a voltage of −146 mV: 11.5 mM [HCO3−]i and 2 mM [CO2]; for I (pA) at −146 mV: wild type Col-0 guard cells, pipette pH 7.1", "protocol": "The interpulse period was 5 s. Liquid junction potentials (LJP) were determined using Clampex 10.0. No leak subtraction was applied for all current-voltage curves. Steady-state currents were the average currents during the last 500 ms of pulses. Detail contents of solutions are discussed, below (see “supplementary data”). Bicarbonate (CsHCO3) was freshly dissolved in the pipette solution before patch clamp experiments and pH was adjusted to the indicated values. The pipette solution was stored using air-tight precision glass syringes during patch clamp experiments to slow CO2 equilibration with the surrounding air and was not stored overnight. […] [HCO3^−] represents the free bicarbonate concentration; [CO2] represents the free CO2 concentration. […] To independently measure CO2 concentrations in the solutions at different pH values, an InPro 5000 CO2 sensor (Mettler Tolego 400, Mettler-Toledo Inc, USA) was used for dissolved CO2. The InPro 5000 sensor employs a gas permeable silicone membrane. The significance of differences between data sets was assessed by noncoupled double-tailed Student's t-test analysis. Values of P<0.05 were considered statistically significant.\nFor experiments analyzing effects of protons on S-type anion currents, the pipette solution contained 150 mM CsCl, 2 mM MgCl2, 6.7 mM EGTA, 0.6 mM CaCl2 (2 μM [Ca^2+]i), 5 mM Mg-ATP, 5 mM Tris-GTP, 1 mM Mes/Tris, pH 6.1. For experiments with pipette solution at pH 7.8, the pipette medium contained 150 mM CsCl, 2 mM MgCl2, 2 μM free [Ca^2+]i, 5 mM Mg-ATP, 5 mM Tris-GTP, 1 mM HEPES/Tris. Calcium affinities of EGTA and free Ca^2+ concentrations were calculated using the WEBMAXC tool (http://www.stanford.edu/-epatton/webmaxc/webmaxcE.htm), which considers pH, [ATP] and ionic conditions. The bath solution contained 30 mM CsCl, 2 mM MgCl2, 5 mM CaCl2 and 10 mM Mes/Tris, pH 5.6."}, "[2]": {"system": "intracellular pH of Arabidopsis guard cells", "assay": "Fluorescence imaging of guard cells expressing the pH sensor Pt-GFP", "type": "cell-based", "protocol": "Fluorescence imaging was performed with a TE300 inverted microscope using a TE-FM Epi-Fluorescence attachment (Nikon) as previously described (Allen et al, 2000). Fluorescence images at excitation wavelengths of 470 nm and 440 nm were taken every 2 s using light from a 75-Watt xenon short arc lamp (Osram, Germany). […] neutral density filters were used to reduce bleaching of fluorescent reporter. Metafluor software (MDS, Inc.) was used to control filter wheels, shutter and COOLSNAP™ (CoolSNAP) CCD camera from Photomerics when recording and also processing raw data. The fluorescence ratio F470/F440 of Pt-GFP was analyzed as a detection of pH shifts (Schulte et al, 2006). […]\nFor recording intracellular Pt-GFP fluorescence in response to changes in extracellular pH incubation buffers, the pH of incubation buffers containing 10 mM MES, 10 mM KCl and 50 μM CaCl2 at 5.0 and 7.5 was adjusted by adding Tris-HCl. […] For recording intracellular Pt-GFP fluorescence in response to constant extracellular pH and added weak acid, the perfusion buffers contained 10 mM MES, 10 mM KCl and 50 μM CaCl2, pH 5.6 supplemented with the indicated concentrations of sodium butyrate. […] Background fluorescence intensities at 470 nm were measured in regions lacking guard cells and are also shown for the corresponding experiments."}, "[3]": {"system": "Arabidopsis intact leaves", "assay": "Stomatal conductance measurements of intact leaves in response to imposed [CO2] (Li-6400 gas exchange analyzer)", "type": "in vivo", "protocol": "Stomatal conductance measurements of 5-week-old plants in response to the imposed [CO2] at a light (PAR) fluence rate of 150 μmol m^−2s^−1 were conducted with a Li-6400 gas exchange analyzer with a fluorometer chamber (Li-Cor Inc.) as described-previously (Hu at al, 2010). To reduce the wilting of abi1-1 and abi1-2 mutant leaves, all plants ware analyzed with a humidifier that humidified the air surrounding plants to ˜75-85%. Relative stomatal conductance values of intact leaves were calculated by normalization relative to 365 or 400 ppm just before transition to 800 ppm [CO2]. Data shown are mean±s.e. of at least 3 leaves per genotype in the same experimental set."}, "[4]": {"system": "voltage-dependent anion channels (R-type anion channels) in Arabidopsis hypocotyl cells", "details": "Arabidopsis hypocotyl cells (Frachisse et al, 1999); cited from earlier work"}},
  "note": "Marks after values point to notes of the source that are not given here.",
  "data": [
    {"smiles": "O=C=O", "note": "[CO2, carbon dioxide]", "values": [
      {"measurement": "activation of S-type anion channel currents", "setting": "[1]; wild type, 2 mM intracellular free [CO2] (1.1 mM free [HCO3−]i) at pH 6.1, P>0.05", "value": "not activated"},
      {"measurement": "guard cell intracellular pH fluorescence (Pt-GFP)", "setting": "[2]; CO2 bubbled in extracellular perfusion buffers repeatedly shifted from 0 ppm to 800 ppm", "value": "no clear shifts"},
      {"measurement": "initial rate of stomatal conductance change", "setting": "[3]; abi1-1 mutant plants, [CO2] shifted from 400 to 800 ppm for 30 min, ~75-85% humidity", "value": "-0.035 ± 0.007", "unit": "mmol H2O m^-2 s^-1 min^-1"},
      {"measurement": "initial rate of stomatal conductance change", "setting": "[3]; abi2-1 mutant plants, [CO2] shifted from 400 to 800 ppm for 30 min, ~75-85% humidity", "value": "-0.037 ± 0.007", "unit": "mmol H2O m^-2 s^-1 min^-1"},
      {"measurement": "initial rate of stomatal conductance change", "setting": "[3]; pyr1;pyl1;pyl2;pyl4 mutant plants, [CO2] shifted from 365 to 800 ppm for 30 min", "value": "−0.035±0.008", "unit": "mmol H2O m^−2 s^−1 min^−1"},
      {"measurement": "initial rate of stomatal conductance change", "setting": "[3]; pyr1;pyl1;pyl2;pyl4 mutant plants, first 30 min upon shifting [CO2] from 800 to 100 ppm", "value": "0.022±0.002", "unit": "mmol H2O m^−2 s^−1 min^−1"},
      {"measurement": "initial rate of stomatal conductance change", "setting": "[3]; wild type plants, [CO2] shifted from 365 to 800 ppm for 30 min", "value": "−0.038±0.014", "unit": "mmol H2O m^−2 s^−1 min^−1"},
      {"measurement": "initial rate of stomatal conductance change", "setting": "[3]; wild type plants, [CO2] shifted from 400 to 800 ppm for 30 min, ~75-85% humidity", "value": "−0.041±0.01", "unit": "mmol H2O m^−2 s^−1 min^−1"},
      {"measurement": "initial rate of stomatal conductance change", "setting": "[3]; wild type plants, first 30 min upon shifting [CO2] from 800 to 100 ppm", "value": "0.042±0.013", "unit": "mmol H2O m^−2 s^−1 min^−1"}
    ]},
    {"smiles": "O=C(O)O", "note": "[bicarbonate]", "values": [
      {"measurement": "current amplitude activated by bicarbonate at a voltage of −146 mV", "setting": "[1]; Col-0 wild type guard cells, 2 μM [Ca2+]i, n=10", "value": "−59±5.9", "unit": "pA"},
      {"measurement": "whole-cell current at a voltage of −144 mV", "setting": "[1]; Col-0 wild type, extracellular bath perfusion with 13.5 mM total bicarbonate (11.5 mM free HCO3−, 2 mM CO2) pH 7.1, n=6", "value": "−17±5", "unit": "pA"},
      {"measurement": "HCO3− activated S-type anion current at a voltage of −146 mV", "setting": "[1]; Ler wild type guard cells, 2 μM [Ca2+]i, n=7", "value": "−51±4.3", "unit": "pA"},
      {"measurement": "activation of anion currents", "setting": "[1]; ca1;ca4 double mutant guard cells, 13.5 mM total bicarbonate (11.5 mM free [HCO3−]i/2 mM free [CO2]) pH 7.1, 2 μM [Ca2+]i", "value": "activated anion currents"},
      {"measurement": "activation of S-type anion currents", "setting": "[1]; ht1-2 guard cells, 5.75 mM free [HCO3−]i and 1 mM free [CO2] pH 7.1, 2 μM [Ca2+]i, P<0.01", "value": "significant activation"},
      {"measurement": "activation of S-type anion currents", "setting": "[1]; ht1-2 guard cells, 5.75 mM free [HCO3−]i, [Ca2+]i buffered to 0.15 μM", "value": "no significant S-type anion current activation"},
      {"measurement": "reversal potential of CO2+HCO3− activated whole-cell currents", "setting": "[1]; imposed chloride equilibrium potential +31.1 mV, n=8", "value": "+24.0±3.6 mV"},
      {"measurement": "HCO3− activated S-type anion current at a voltage of −146 mV", "setting": "[1]; ost1-2 mutant guard cells, 2 μM [Ca2+]i, n=6", "value": "−25.2±1.9", "unit": "pA"},
      {"measurement": "current amplitude activated by bicarbonate at a voltage of −146 mV", "setting": "[1]; ost1-3 mutant guard cells, 2 μM [Ca2+]i, n=6", "value": "−24±1.9", "unit": "pA"},
      {"measurement": "anion currents in the presence of bicarbonate", "setting": "[1]; slac1-1 mutant guard cell protoplasts, 11.5 mM free [HCO3−]i and 2 mM [CO2], similar to control, P>0.05", "value": "only small anion currents"},
      {"measurement": "I (pA) at −146 mV", "setting": "[1]; [Ca^2+]i 0.15 μM, free [HCO3]i 11.5 mM", "value": "−22.3 ± 2.3^c pA"},
      {"measurement": "I (pA) at −146 mV", "setting": "[1]; [Ca^2+]i 0.6 μM, free [HCO3]i 11.5 mM", "value": "−27.3 ± 4.5^f pA"},
      {"measurement": "I (pA) at −146 mV", "setting": "[1]; [Ca^2+]i 2 μM, free [HCO3]i 5.75 mM", "value": "−21.8 ± 3.2^d pA"},
      {"measurement": "I (pA) at −146 mV", "setting": "[1]; [Ca^2+]i 2 μM, free [HCO3]i 11.5 mM", "value": "−58.7 ± 5.9^e pA"},
      {"measurement": "activation of S-type anion currents", "setting": "[1]; wild type, 13.04 mM free [HCO3−] with 0.46 mM free [CO2] at pH 7.8, 2 μM [Ca2+]i, P<0.05", "value": "S-type anion currents were activated"},
      {"measurement": "reversal potential of whole-cell S-type anion currents", "setting": "[1]; wild type, 50 mM total bicarbonate in pipette pH 7.1 (43.4 mM free [HCO3−]i, 6.6 mM free [CO2]), n=4", "value": "+26.0±0.9 mV"},
      {"measurement": "relative permeability ratio of PHCO3−/PCi−", "setting": "[1]; wild type, 50 mM total bicarbonate, estimated using the Goldman equation", "value": "0.06±0.01"},
      {"measurement": "activation of S-type anion currents by extracellular application", "setting": "[1]; wild type, bath perfused 2 min with 11.5 mM free [HCO3−] and 2 mM [CO2] at pH 7.1", "value": "No large S-type anion currents were activated"},
      {"measurement": "relative permeability ratio PHCO3−PCO−", "setting": "[4]", "value": 0.8}
    ]},
    {"smiles": "CCCC(=O)[O-].[Na+]", "note": "[sodium butyrate]", "values": [
      {"measurement": "ratiometric fluorescence (F470/F440) of Pt-GFP, intracellular pH", "setting": "[2]; intact epidermes perfused with sodium butyrate-containing MES buffers, pH 5.6", "value": "clear shifts"}
    ]}
  ]
}
